Consider 6 compounds from patent publication US10729713B2, “Pharmaceutical composition for treating hepatitis, liver fibrosis, and liver cancer” (GUANGDONG PROVINCIAL HOSPITAL OF CHINESE MEDICINE, priority 2016, dated 2020).

One data set relates to HBV. Kind of data set: Inhibition of HBV replication in HepG2.215 cells (HBsAg/HBeAg by ELISA, HBV gene by fluorescent quantitative PCR). Format: cell-based, Hepatitis B Virus. The following applies: for Expression of HBV gene / HBeAg / HBsAg: normalized, 100% for control group; for HBeAg / HBsAg: HepG2.215 supernatant, 48 h. The protocol:
The drug of Example 4 is used. The concentration of Adefovir Dipivoxil was 1 μmol, and the vinegar-baked bupleurum root polysaccharides are at a medium dosage in corresponding dosage, one-half of the medium dosage is a low dosage, and twice of the medium dosage is a high dosage.
The experiment is started with HepG2.215 cells that were grown to 80% confluence.
The cells were assigned to 5 groups, comprising a blank control group, a treatment group with Adefovir Dipivoxil, a treatment group with Adefovir Dipivoxil in combination with high dosage of vinegar-baked bupleurum root polysaccharides, a treatment group with Adefovir Dipivoxil in combination with medium dosage of vinegar-baked bupleurum root polysaccharides, and a treatment group with Adefovir Dipivoxil in combination with low dosage of vinegar-baked bupleurum root polysaccharides. Culturing for 48 h after administration, the supernatant is collected, the expression of the HBV gene is determined by fluorescent quantitative PCR, and the HBsAg and HBeAg concentrations are determined by ELISA.
The experiment is started with HepG2.215 cells that are grown to 80% confluence. The cells were assigned to 5 groups, comprising a blank control group, a treatment group with Tenofovir, a treatment group with Tenofovir in combination with high, medium, and low dosage of vinegar-baked bupleurum root polysaccharides. The concentration of Tenofovir is 0.8 μmol, the medium dosage of vinegar-baked bupleurum root polysaccharides is a corresponding dosage in Example 7, one-half of which is the low dosage, and twice of which is the high dosage. Culturing for 48 h after administration, the supernatant is collected, the expression of the HBV gene is determined by fluorescent quantitative PCR, and the HBsAg and HBeAg concentrations are determined by ELISA.
A general note: In an ELISA, binding on a coated surface is turned into a signal by an enzyme label.

A short description of data set [1]: In vivo distribution of Entecavir in mice. The following applies: Entecavir 0.1 mg/kg, 5 consecutive days, combination with high dosage of polysaccharides (as Example 5), n = 6. The protocol:
The bupleurum root polysaccharides enhance the distribution of Entecavir in liver, and reduce its distribution in other tissues.
The drug of Example 5 is used.
20 male mice are fasted for one night, but free accessed to water before the experiment. The animals are divided into three groups according to body weight, including a treatment group with Entecavir, and treatment groups with bupleurum root polysaccharides combined with Entecavir. The animals are administered for 5 consecutive days. The dosage of Entecavir is 0.1 mg/kg, and the corresponding dosage of bupleurum root polysaccharides in Example 5 is a high dosage, one-half of which is a low dosage. The animals are sacrificed after the last administration and the blood, heart, liver, spleen, lung, kidney, intestine, stomach, bone marrow, and brain are taken. 100 μL of plasma is directly precipitated by adding 800 μL of acetonitrile, and the supernatant is frozen and centrifuged. 500 μL of the supernatant is blow dried with nitrogen, and 100 μL of the mobile phase is added for reconstitution, and injected for analysis. 0.1 g of the tissue is added with 1 mL of water and homogenized. The homogenate is treated following the treatment method for the plasma.
Effect of bupleurum root polysaccharides on in vivo distribution of Entecavir (ng/mL)

For data set [2] the following is noted: drug modified with monophosphorylation, compared with the control group; cited from earlier work.
The nature of data set [3]: Plasma and tissue distribution of Lamivudine in rats, liquid chromatography. It is filed as in vivo, rat. The note with it: Lamivudine 15 mg/kg, n = 6. As for the experimental part:
The pharmaceutical composition of the present invention enhances the Lamivudine level in the rat liver. Grouping of the test animals and administration are the same as the Example 1 (except that the drug used is the same as Example 3). The dosage of Lamivudine is 15 mg/kg, and the bupleurum root polysaccharides are at a corresponding dosage. The Lamivudine content was determined by liquid chromatography. 0.1 mL of plasma is added with 10 μL of 0.2 mol ammonium acetate, and then with 1 mL of acetonitrile, vortexed, and centrifuged. The supernatant is collected and injected for determination. 0.1 g of the tissue sample is added with 1 mL of physiological saline, homogenized, and treated following the same method as for the plasma sample. The Lamivudine contents in the plasma and tissue sample are determined.

A short description of data set [4]: Tissue distribution of oxymatrine (OM) and its metabolite matrine (M) in rats, LC-MS. The note with it: po, OM 54 mg/kg single administration, sampled at 20, 60, 240 min, n = 6. It is filed as in vivo, rat. The protocol:
The pharmaceutical composition of the present invention enhances the distribution of oxymatrine (OM) in the rat liver. 36 rats are acclimated for 7 days, and randomized into a treatment group with oxymatrine (OM) alone, and a treatment group with a combined drug of the present invention (drug in Example 1). Wherein, the dosage of oxymatrine (OM) is 54 mg/kg, and the bupleurum root polysaccharides are used at a corresponding dosage in Example 1. After a single administration, blood is sampled from the abdominal aorta respectively at 20 min, 60 min, and 240 min. The rat is sacrificed, from which the liver, spleen, lung, kidney, and heart are removed. […] The concentrations of oxymatrine (OM) and its metabolite (M) are determined by LC-MS, the content in the tissue and the area under the curve are calculated.

In data set [5] the test system is duck hepatitis B virus (DHBV). The data set is described as follows: Effect against duck hepatitis B virus in DHBV-infected ducklings. The following applies: DHBV-infected ducks; Telbivudine 80 mg·kg^−1 alone, gastric perfusion twice a day, 10 days; 100% for control group. It is filed as in vivo.
[6] abbreviates: HepG2.215, 48 h, text summary of Table 4.
[7] abbreviates: Adefovir Dipivoxil 1 μmol alone.

Molecules are shown by their SMILES.

Turning to `CC(C)(C)C(=O)OCOP(=O)(COCCn1cnc2c(N)ncnc21)OCOC(=O)C(C)(C)C` [Adefovir Dipivoxil], in the data set on HBV (HepG2.215, 48 h, Adefovir Dipivoxil 1 μmol alone), the “Expression of HBV gene” value stood at 50 ± 5.3%. Further, in the data set on HBV (setting [6]), the “inhibition rate for gene expression” value is 50% and the “inhibition rate on the replication of HBV (HBsAg, HBeAg)” value is 60-65%. In the data set on HBV (setting [7]), the HBeAg stood at 40 ± 3.4% and the HBsAg came to 35 ± 1.2%.
For `C=C1[C@H](CO)[C@@H](O)C[C@@H]1n1cnc2c(=O)[nH]c(N)nc21` [Entecavir], the “Entecavir concentration, Marrow” value in data set [1] (mouse bone marrow) is 18.9 ng/L. In data set [1] (mouse heart), the “Entecavir concentration, Heart” value was 26.14 ng/L. The “Entecavir concentration, Instine” value in data set [1] (mouse intestine) is given as 24.3 ng/L. Moreover, the “Entecavir concentration, Kidney” value in data set [1] (mouse kidney) was 27.5 ng/L. For the same compound, the “Entecavir concentration, Liver” value in data set [1] (mouse liver) came out at 26.8 ng/L. Moreover, in data set [1] (mouse lung), the “Entecavir concentration, Lung” value is listed as 26.3 ng/L. In data set [1] (mouse plasma), the “Entecavir concentration, Plasma” value worked out at 30.6 ng/L. The “Entecavir concentration, Spleen” value in data set [1] (mouse spleen) was 28.4 ng/L. For the same compound, in data set [1] (mouse stomach), the “Entecavir concentration, Stomach” value was 25.6 ng/L.
Broadly, the AUC is concentration integrated over time. Take `Nc1ccn([C@@H]2CS[C@H](CO)O2)c(=O)n1` [Lamivudine]: in data set [2], the “increase of AUC” value is listed as 11.2 times. In addition, the “increase of the concentration of Lamivudine in the liver” value in data set [2] is on record as 7.7 times. Besides, the AUC turned out to be 26.8 ng·h/mL in data set [3] (rat heart, read-out: AUC of Lamivudine, Heart); 24.3 ng·h/mL in data set [3] (rat kidney, read-out: AUC of Lamivudine, Kidney); 27.3 ng·h/mL in data set [3] (rat liver, read-out: AUC of Lamivudine, Liver); 23.1 ng·h/mL in data set [3] (rat lung, read-out: AUC of Lamivudine, Lung); 25.4 ng·h/mL in data set [3] (rat plasma, read-out: AUC of Lamivudine, Plasma); 30.2 ng·h/mL in data set [3] (rat spleen, read-out: AUC of Lamivudine, Spleen). Also, the AUC in data set [3] (rat stomach, read-out: AUC of Lamivudine, Stomach) came to 28.8 ng·h/mL.
Take `O=C1CCC[C@@H]2[C@H]3CCC[N+]4([O-])CCC[C@@H](CN12)[C@@H]34` (some centres unmarked) [OM, oxymatrine]: the AUC in data set [4] (rat heart, read-out: AUC of oxymatrine, Heart) amounted to 125 ng·h/mL; in data set [4] (rat kidney, read-out: AUC of oxymatrine, Kidney) it was 69.7 ng·h/mL; in data set [4] (rat liver, read-out: AUC of oxymatrine, Liver), 125 ng·h/mL; in data set [4] (rat lung, read-out: AUC of oxymatrine, Lung) it was 366 ng·h/mL; in data set [4] (rat plasma, read-out: AUC of oxymatrine, Plasma), 520 ng·h/mL; in data set [4] (rat spleen, read-out: AUC of oxymatrine, Spleen), 64.9 ng·h/mL.
Consider `Cc1cn([C@@H]2C[C@@H](O)[C@H](CO)O2)c(=O)[nH]c1=O` [Telbivudine], for which, in data set [5], the “Expression of HBV gene” value turned out to be 50.5 ± 5.3%, the HBeAg was 37.2 ± 3.4% and the HBsAg turned out to be 30 ± 1.3%.
As to `C[C@H](Cn1cnc2c(N)ncnc21)OCP(=O)(O)O` [Tenofovir], the “Expression of HBV gene” value in the data set on HBV (HepG2.215, 48 h, Tenofovir 0.8 μmol alone) worked out at 45.2 ± 5.3%. In addition, in the data set on HBV (Tenofovir 0.8 μmol alone), the HBeAg was 39.8 ± 2.4% and the HBsAg is on record as 33.2 ± 1.2%.
